Source: patent US6706663B2, “Herbicidal 3-heterocyclic substituted benzisothiazole and benzisoxazole compounds” (Wyeth, priority 2000, dated 2004)

Test system: ORYSAT (Rice, Tebonnet)
Assay: Flooded paddy, post-transplant rice tolerance
Assay type: in vivo, Oryza sativa, (L.) Tebonnet
Conditions: in vivo
Description: Results of herbicide evaluation are expressed on a rating scale (0-9). The scale is based upon a visual observation of plant stand, vigor, malformation, size, chlorosis and overall plant appearance as compared with a control.
The tolerance of transplanted rice to post-transplanted herbicide application is determined as follows: two ten-day-old rice seedlings (cv. Tebonnet) are transplanted into silt loam soil in 32 oz. plastic containers with a diameter of 10.5 cm and no drainage holes. After transplanting, the containers are flooded and the water level is maintained at 1.5 to 3 cm above the soil surface. […] The treated containers are placed on greenhouse benches, watered such that the water level is maintained as stated above, and cared for in accordance with conventional greenhouse procedures.

Row | Structure (SMILES) | herbicidal rating, ORYSAT (rice tolerance)
1 | Cn1c(C(F)(F)F)cc(=O)n(-c2ccc3snc(-c4cccnc4)c3c2)c1=O [Example 11] | 0.0
2 | Cn1c(C(F)(F)F)cc(=O)n(-c2ccc3c(c2)C(c2cccc[n+]2[O-])=NS3(=O)=O)c1=O [Example 15] | 0.0
